According to PubChem BioAssay AID1918954 (Molecular Pharmacology Branch, DTP, NCI, 2023):

Test system: MDA-MB-468 complex spheroids with HUVEC/MSC, viability
Assay: Anticancer human tumor MDA-MB-468 cell line growth inhibition;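 further: spheroids exposed to agents for seven days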;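 on viability, T/C: 100% = DMSO vehicle control viability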
Details: for IC50: curve of first compound; for viability, T/C: stronger effect = lower value
Procedure, shortened: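 Drug combinations with the LSD1 inhibitor iadademstat tested on tumor cells co-cultured as spheroids with endothelial cells and mesenchymal stem cells. Concentrations descended in half-log increments from clinical Cmax or 10 microM.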

[1] = second compound 0.1 µM, first compound 0.00949 µM
[2] = second compound 0.1 µM, first compound 0.03 µM
[3] = second compound 0.1 µM, first compound 0.0949 µM
[4] = second compound 0.1 µM, first compound 0.3 µM
[5] = second compound 0.1 µM, first compound 0.949 µM
[6] = second compound 0.1 µM, first compound 3 µM
[7] = second compound 0.316 µM, first compound 0.00949 µM
[8] = second compound 0.316 µM, first compound 0.03 µM
[9] = second compound 0.316 µM, first compound 0.0949 µM
[10] = second compound 0.316 µM, first compound 0.3 µM
[11] = second compound 0.316 µM, first compound 0.949 µM
[12] = second compound 0.316 µM, first compound 3 µM
[13] = second compound 1 µM, first compound 0.00949 µM
[14] = second compound 1 µM, first compound 0.03 µM
[15] = second compound 1 µM, first compound 0.0949 µM
[16] = second compound 1 µM, first compound 0.3 µM
[17] = second compound 1 µM, first compound 0.949 µM
[18] = second compound 1 µM, first compound 3 µM
[19] = second compound 3.16 µM, first compound 0.00949 µM
[20] = second compound 3.16 µM, first compound 0.03 µM
[21] = second compound 3.16 µM, first compound 0.0949 µM
[22] = second compound 3.16 µM, first compound 0.3 µM
[23] = second compound 3.16 µM, first compound 0.949 µM
[24] = second compound 3.16 µM, first compound 3 µM
[25] = second compound 10 µM, first compound 0.00949 µM
[26] = second compound 10 µM, first compound 0.03 µM
[27] = second compound 10 µM, first compound 0.0949 µM
[28] = second compound 10 µM, first compound 0.3 µM
[29] = second compound 10 µM, first compound 0.949 µM
[30] = second compound 10 µM, first compound 3 µM

SMILES | IC50 (second compound 0.1 µM) | IC50 (second compound 0.316 µM) | IC50 (second compound 1 µM) | IC50 (second compound 3.16 µM) | IC50 (second compound 10 µM) | viability, T/C [1] | viability, T/C [2] | viability, T/C [3] | viability, T/C [4] | viability, T/C [5] | viability, T/C [6] | viability, T/C [7] | viability, T/C [8] | viability, T/C [9] | viability, T/C [10] | viability, T/C [11] | viability, T/C [12] | viability, T/C [13] | viability, T/C [14] | viability, T/C [15] | also measured
NS(=O)(=O)OCC1CC(n2ccc3c(NC4CCc5ccccc54)ncnc32)CC1O (stereo not given) + NC1CC1c1ccc(-c2cccc(O)c2)cc1 | 11.5 nM | 11.2 nM | < 9.49 nM | < 9.49 nM | < 9.49 nM | 54.5% | 28.2% | 9.26% | 5.09% | 2.96% | 2.17% | 54.2% | 26.2% | 9.29% | 5.11% | 3% | 2.26% | 45.8% | 20.7% | 9.67% | viability, T/C [16]: 4.9%; viability, T/C [17]: 3.15%; viability, T/C [18]: 2.38%; viability, T/C [19]: 36.5%; viability, T/C [20]: 18.4%; viability, T/C [21]: 9.14%; viability, T/C [22]: 5.23%; viability, T/C [23]: 3.44%; viability, T/C [24]: 2.31%; viability, T/C [25]: 20.9%; viability, T/C [26]: 12.1%; viability, T/C [27]: 5.43%; viability, T/C [28]: 3.74%; viability, T/C [29]: 2.55%; viability, T/C [30]: 2.05%
Nc1ccccc1NC(=O)c1ccc(CNC(=O)OCc2cccnc2)cc1 + NC1CC1c1ccc(-c2cccc(O)c2)cc1 | 66.3 nM | 61.8 nM | 56.8 nM | 60.5 nM | 48.2 nM | 101% | 90.5% | 31.8% | 2.33% | 0.21% | 0.17% | 90.7% | 86.1% | 28.6% | 2.63% | 0.2% | 0.15% | 108% | 78.6% | 27.5% | viability, T/C [16]: 2.4%; viability, T/C [17]: 0.19%; viability, T/C [18]: 0.13%; viability, T/C [19]: 92%; viability, T/C [20]: 88%; viability, T/C [21]: 25.7%; viability, T/C [22]: 2.56%; viability, T/C [23]: 0.16%; viability, T/C [24]: 0.14%; viability, T/C [25]: 72.1%; viability, T/C [26]: 68.1%; viability, T/C [27]: 24.5%; viability, T/C [28]: 2.72%; viability, T/C [29]: 0.24%; viability, T/C [30]: 0.2%
O=C(C=Cc1cccc(S(=O)(=O)Nc2ccccc2)c1)NO + NC1CC1c1ccc(-c2cccc(O)c2)cc1 | 59.9 nM | 44.2 nM | 53.3 nM | 49.8 nM | 26.2 nM | 88.7% | 74.8% | 25.8% | 2.15% | 0.17% | 106% | 96.3% | 59.3% | 23.1% | 2.07% | 0.17% | 101% | 92.9% | 70.3% | 25.5% | viability, T/C [16]: 2.36%; viability, T/C [17]: 0.14%; viability, T/C [18]: 90.9%; viability, T/C [19]: 83.1%; viability, T/C [20]: 64.5%; viability, T/C [21]: 23%; viability, T/C [22]: 2.23%; viability, T/C [23]: 0.16%; viability, T/C [24]: 101%; viability, T/C [25]: 67.7%; viability, T/C [26]: 47.7%; viability, T/C [27]: 17.7%; viability, T/C [28]: 1.86%; viability, T/C [29]: 0.19%; viability, T/C [30]: 79.1%
